# Data published in patent publication US7285554B2, “Pyrazole derivative” (Astellas Pharma Inc., priority 1997, dated 2007).
# pIC50: −log10 of the molar value.
# Test system: IL-2 production from Jurkat cells
# Assay: cells
# Conditions: Homo sapiens, read-out: IL-2 production inhibition IC50 value
row,Structure (SMILES),pIC50
1,"Cc1ncsc1C(=O)Nc1ccc(-n2nc(C(F)(F)F)cc2C(F)(F)F)cc1 [Example 1, 4-methyl-4′-[3,5-bis(trifluoromethyl)-1H-pyrazol-1-yl]thiazole-5-carboxyanilide]",≥ 6.00
2,"Cn1nc(C(F)(F)F)cc1-c1ccc(C(=O)Nc2ccccc2Cl)s1 [Example 5, 2′-chloro-5-(1-methyl-3-trifluoromethyl-1H-pyrazol-5-yl)thiophene-2-carboxyanilide]",≥ 6.00
